Here are results for one molecule from PMC10223470 (Molecules, 2023).

In one series the target is T1, human 5-HT1A receptor (Homo sapiens, UniProt P08908).
T1 construct: expressed in transfected cells; host or cells: HEK293
T1 sequence (P08908 1-422): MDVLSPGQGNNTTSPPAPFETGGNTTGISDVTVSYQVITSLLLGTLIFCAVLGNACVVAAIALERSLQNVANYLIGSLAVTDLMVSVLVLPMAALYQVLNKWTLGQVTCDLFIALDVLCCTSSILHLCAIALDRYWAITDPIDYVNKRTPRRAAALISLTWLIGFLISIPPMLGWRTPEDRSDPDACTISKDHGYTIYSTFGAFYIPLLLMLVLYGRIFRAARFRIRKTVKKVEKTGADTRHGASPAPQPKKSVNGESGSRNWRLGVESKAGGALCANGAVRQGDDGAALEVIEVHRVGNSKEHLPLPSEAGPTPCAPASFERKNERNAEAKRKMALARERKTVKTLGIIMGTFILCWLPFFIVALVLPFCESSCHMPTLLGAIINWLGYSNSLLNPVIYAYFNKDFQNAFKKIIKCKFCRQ
The series is described as follows: Competition radioligand binding at human 5-HT1A receptor ([3H]-8-OH-DPAT). The conditions noted are these: mean ± SEM of 2 independent experiments, read-out: hu5-HT1A % inh. at 10 µM. On the procedure: (§1) Competition radioligand binding assays were performed on membranes isolated from cell lines stably expressing the cloned human receptors, which were either in-house or commercially available. […] Assays (250 μL assay final volume) were carried out in 96-well polypropylene plates in duplicate. In short, the suspension of appropriate membrane protein was incubated in an assay buffer with the addition of the corresponding radioligand, in the presence or absence of a tested compound or reference compound. […] After the incubation, the content of the test plates was transferred to 96 well plates with glass fiber filter GF/B or GF/C, previously pretreated with polyethyleneimine (PEI), and rapidly filtered with the use of vacuum, followed by rapid washing with cold (4 °C) wash buffer. After that, the filter plates were dried at 60 °C for 1 h. Then, 30 μL of liquid scintillation cocktail (UniverSol-ES, MP Biomedicals, Solon, OH, USA) was added to each well of the filter plates, and the radioactivity was measured in a MicroBeta^2 microplate scintillation counter (PerkinElmer, Madrid, Spain).
(§2) Competition binding curves were fitted to a one-site competition binding model (Fit Ki) with the use of Prism 7 software (GraphPad, San Diego, CA, USA). logKi (log of the equilibrium dissociation constant (Ki)) values were obtained after constraining the concentration of radioligand employed in the assay and its dissociation constant (KD) as determined in saturation radioligand binding assays.

In another series the target is T2, human 5-HT2A receptor (Homo sapiens, UniProt P28223).
T2 construct: expressed in transfected cells; host or cells: CHO-K1
The series is described as follows: Competition radioligand binding at human 5-HT2A receptor ([3H]-Ketanserin). Particulars: mean ± SEM of 2 independent experiments, read-out: hu5-HT2A % inh. at 10 µM. Here is the method: as §1, §2

Series [1] deals with mice. The series is described as follows: Motor coordination, chimney test. The format is in vivo. Particulars: 25, 50 and 75 mg/kg i.p., 60 min before testing. On the procedure:
The experiments were carried out on 6 weeks old naive Swiss male mice (Experimental Medicine Center (OMD), Lublin, Poland), weighing 28–30 g. The cages with mice were located in air-conditioned rooms maintaining the ambient temperature within the range of 23–25 °C. The animals were provided with a natural 12 h day/night cycle, replicating the day and night mode. Each testing group was represented by 8–10 animals, depending on the research schedule. All experiments were conducted according to the National Institute of Health Guidelines for the Care and Use of Laboratory Animals (8th edition) and to the European Community Council Directive for the Care and Use of Laboratory Animals of 22 September 2010 (2010/63/EU) and were approved by the Local Ethical Committee (number of ethical approval: 147/2018). Compound 17 (25, 50, 75 mg/kg) was suspended in 1% Tween 80 in saline solution and was administered intraperitoneally (i.p.) 60 min before the test. […] Imipramine hydrochloride (30 mg/kg, Sigma-Aldrich was administered intraperitoneally (i.p.) 60 min before the test. […] Sigma-Aldrich, USA) was given subcutaneously (s.c.). Prior to administration, the agent was dissolved in saline and injected 30 min before the test. […] Motor coordination has been assessed in mice using the chimney test and the rotarod test, according to the procedure we had used before. […]

In series [2] the test system is mice. The series is described as follows: Forced swim test (FST). Particulars: 60 min before the test. It counts as in vivo. Here is the method:
The experiments were carried out on 6 weeks old naive Swiss male mice (Experimental Medicine Center (OMD), Lublin, Poland), weighing 28–30 g. The cages with mice were located in air-conditioned rooms maintaining the ambient temperature within the range of 23–25 °C. The animals were provided with a natural 12 h day/night cycle, replicating the day and night mode. Each testing group was represented by 8–10 animals, depending on the research schedule. All experiments were conducted according to the National Institute of Health Guidelines for the Care and Use of Laboratory Animals (8th edition) and to the European Community Council Directive for the Care and Use of Laboratory Animals of 22 September 2010 (2010/63/EU) and were approved by the Local Ethical Committee (number of ethical approval: 147/2018). Compound 17 (25, 50, 75 mg/kg) was suspended in 1% Tween 80 in saline solution and was administered intraperitoneally (i.p.) 60 min before the test. […] Imipramine hydrochloride (30 mg/kg, Sigma-Aldrich was administered intraperitoneally (i.p.) 60 min before the test. […] Sigma-Aldrich, USA) was given subcutaneously (s.c.). Prior to administration, the agent was dissolved in saline and injected 30 min before the test. Control animals received an (i.p.) or (s.c.) injection of a respective vehicle. All compounds were injected in a manner generally accepted in experimental pharmacology, in an amount of 10 mL/kg body weight. Forced Swim Test was carried out according to the method of Porsolt et al.. It is a standard behavioral test, called the resignation test, which is used to determine the effectiveness of antidepressant drugs in laboratory rodents. Each mouse was placed individually for 6 min into a glass cylinder (height 25 cm, diameter 10 cm) with 15 cm of water at 23–25 °C. After the first 2 min of the test, the total duration of immobility (in seconds) was measured. An animal was judged to be immobile when it ceased struggling and remained floating motionless and making only movements allowing it to keep the head just above the surface of the water.

Molecules are shown by their SMILES.

T2 sequence (P28223 whole entry): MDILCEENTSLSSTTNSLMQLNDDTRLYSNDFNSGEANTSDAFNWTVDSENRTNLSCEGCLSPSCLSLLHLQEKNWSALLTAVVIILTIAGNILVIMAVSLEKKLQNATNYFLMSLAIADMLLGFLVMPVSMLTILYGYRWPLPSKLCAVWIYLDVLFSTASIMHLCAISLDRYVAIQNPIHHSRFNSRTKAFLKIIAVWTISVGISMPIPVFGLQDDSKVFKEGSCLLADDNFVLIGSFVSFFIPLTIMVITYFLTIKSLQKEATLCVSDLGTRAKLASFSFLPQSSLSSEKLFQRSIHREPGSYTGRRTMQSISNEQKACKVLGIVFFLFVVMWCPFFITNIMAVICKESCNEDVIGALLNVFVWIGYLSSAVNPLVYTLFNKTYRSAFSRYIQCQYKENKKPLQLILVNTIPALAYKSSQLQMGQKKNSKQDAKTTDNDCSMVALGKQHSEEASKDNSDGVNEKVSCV

`O=C(CCN1C(=O)CSc2ccccc21)Nc1ccc(Cl)cc1` [Compound 17, N-(4-Chlorophenyl)-3-(3-oxo-2,3-dihydro-4H-benzo[b][1,4]thiazin-4-yl)propanamide]: the inhibition at 10 µM at human 5-HT1A receptor was 29 ± 9%; at human 5-HT2A receptor, 28 ± 1%. Besides, the “effect on behavior in the chimney test” value in the series on mice [1] is on record as “did not change the behavior”. Also, the “time to leave the chimney” value in the series on mice [1] is given as no more than 30 s. Moreover, the “effect on immobility time” value with mice [2] (25 mg/kg i.p., p > 0.05) was “no statistically significant effect”. The “effect on total time of immobility vs control group” value in the series with mice [2] (50 mg/kg i.p., p < 0.001) is given as “significantly reduced”; in the series with mice [2] (75 mg/kg i.p., p < 0.01) it was “significantly reduced”.
